“And” between values parts separate entries of the source, which are not always exact repeats. Equal values may be shown once. Values belong to the molecule of their own block, whether it stands above or below them.
Tests used:
RXRα-LBD/R316E = assay: Non-denaturing gel electrophoresis, R316E mutant; assay type: biochemical, human; conditions: 9-cis-RA (0.5 μM) or K-80003 (20 μM), 3 h at 4 °C
Procedure: The human RXRα LBD (residues Thr223 to Thr462) cloned as an N-terminal histidine-tagged fusion protein in pET15b expression vector was expressed in Escherichia coli BL21 strain (Stratagene). After sonication, cell extract was incubated with the His60 Ni Superflow resin, and His-tagged RXRα-LBD-resin complexes were washed, eluted and concentrated to 5 mg ml^−1 for subsequent trails. For crystallization experiment, bovine thrombin (Sigma) was used to cleave the His tag from the purified His-tagged RXRα-LBD. The resulting His tag was removed on the Resource-Q column (GE) using 0.1–1 M NaCl gradient and the Tris-Cl pH 8 buffer. RXRα-LDB was further purified using gel filtration on a Superdex 200 2660 column (GE) pre-equilibrated with the 75 mM NaCl, 20 mM Tris-Cl buffer (pH 8).

RXRα-LBD = assay: BS3 crosslinking, transfected RXRα-LBD; assay type: cell-based; conditions: HepG2 cells; 9-cis-RA (10^−7 M) or K-80003 (5 × 10^−6 M) for 6 h; BS3 1 mM; western blotting
Procedure: (§1) Cell lysates were then prepared and incubated with bis[sulfosuccinimidyl] suberate (BS3, Pierce) dissolved in dimethyl sulfoxide to a final concentration of 1 mM. The reactions were stopped with protein gel loading buffer. Samples were resolved by SDS/PAGE in 8% acrylamide gels and protein bands were visualized by western blotting.

[1] = system: RXRα-A/B / RXRα-LBD interaction; assay: coIP, N/C interaction RXRα-A/B with RXRα-LBD; assay type: cell-based; conditions: HepG2 cells, coIP with anti-HA antibody; one of two similar experiments
[2] = system: RXRα-A/B / RXRα-LBD/W305Q interaction; assay: coIP, N/C interaction RXRα-A/B with RXRα-LBD/W305Q; assay type: cell-based; conditions: HEK293T cells; 9-cis-RA (10^−7 M)
Procedure: (§4) For coIP assay[29], HEK293T cells grown in 10 cm dishes were transfected with various plasmids. Cells were lysed in 1 ml of lysis buffer (20 mM Tris (pH 7.5), 150 mM NaCl, 1% Triton X-100, 1 mM EDTA, 30 mM NaF, 2 mM sodium pyrophosphate) with a cocktail of proteinase inhibitors (Roche). Lysates were incubated with the appropriate antibody for 12 h at 4 °C and subsequently incubated with protein A-Sepharose beads for 1 h. The immunoprecipitates were collected and washed three times with lysis buffer. The protein–antibody complexes recovered on beads were subjected to immunoblotting using appropriate antibodies after separation by SDS-PAGE. Input represents 5% of cell lysates used for coIP assays.

[3] = system: p85α-BCR / RXRα-LBD interaction; assay: coIP, p85α-BCR with RXRα-LBD; assay type: cell-based; conditions: 9-cis-RA (10^−7 M), one of two similar experiments
Procedure: (§2) For coIP assay, HEK293T cells grown in 10 cm dishes were transfected with various plasmids. Cells were lysed in 1 ml of lysis buffer (20 mM Tris (pH 7.5), 150 mM NaCl, 1% Triton X-100, 1 mM EDTA, 30 mM NaF, 2 mM sodium pyrophosphate) with a cocktail of proteinase inhibitors (Roche). Lysates were incubated with the appropriate antibody for 12 h at 4 °C and subsequently incubated with protein A-Sepharose beads for 1 h. The immunoprecipitates were collected and washed three times with lysis buffer. The protein–antibody complexes recovered on beads were subjected to immunoblotting using appropriate antibodies after separation by SDS-PAGE. Input represents 5% of cell lysates used for coIP assays.

[4] = system: p85α-BCR / tRXRα interaction; assay: coIP, p85α-BCR with tRXRα; assay type: cell-based; conditions: 9-cis-RA (10^−7 M), one of two similar experiments
Procedure: as §4

[5] = system: p85α-BCR / RXRα-LBD/W305Q interaction; conditions: HEK293T cells; with or without 9-cis-RA (10^−7 M)
Procedure: as §2

tRXRα/R316E [6] = assay: BS3 crosslinking, tRXRα/R316E; assay type: cell-based; conditions: MCF-7 cells, 9-cis-RA (10^−7 M) or K-80003 (5 × 10^−6 M) for 6 h
Procedure: as §1

tRXRα/F313A = assay: BS3 crosslinking, tRXRα/F313A; assay type: cell-based; conditions: MCF-7 cells, 9-cis-RA (10^−7 M) or K-80003 (5 × 10^−6 M) for 6 h
Procedure: as §1

[7] = system: p85α / tRXRα/R316E interaction; assay: coIP, p85α with tRXRα/R316E; assay type: cell-based; conditions: HEK293T cells; TNFα (10 ng ml^−1) or 9-cis-RA (10^−7 M) for 1 h; coIP anti-Myc
Procedure: as §4

[8] = system: p85α / tRXRα/F313A interaction; assay: coIP, p85α with tRXRα/F313A; assay type: cell-based; conditions: HEK293T cells; 9-cis-RA (10^−7 M) for 1 h; coIP anti-Myc
Procedure: as §4

[9] = system: p85α-ΔiSH2 / tRXRα interaction; assay: p85α-ΔiSH2 interaction with tRXRα; assay type: cell-based
Procedure: as §1

RXRα [10] = system: RXRα; design: method as in PMID 10970886, PMID 9811539; conditions: cited from earlier work
Description: In addition to acting as heterodimeric partners of some nuclear receptors, RXRα can form homodimers[18] that trigger specific signalling pathways. A unique property of RXRα is an auto-repressive mechanism involving homotetramerization, in which a ‘dimer-of-dimers’ pack in a bottom-to-bottom manner, with H12 from each monomer invading (and invaded by) a neighbouring domain across the tetramer interface. This pairwise ‘exchange of arms’ enables each monomer to bind to and occlude the coregulator-binding groove of its neighbour. Some molecules hav ...

Myc-RXRα-LBD (human) = assay: cross-linking; cells (HepG2, HEK293T, MCF-7) transfected for 24 h, treated with 9-cis-RA (10^-7 M) and/or K-80003 (5 x 10^-6 M) for 6 h; lysates or fractions incubated with 1 mM BS3, SDS-PAGE and western blotting
p85α / tRXRα interaction = assay: coIP, p85α with tRXRα; assay type: cell-based; conditions: HEK293T cells; TNFα (10 ng ml^−1) for 1 h; coIP anti-Myc
Procedure: as §4

tRXRα = assay: Subcellular localization of tRXRα, immunostaining; assay type: cell-based; conditions: MCF-7 cells cotransfected with p85α; TNFα (10 ng ml^−1) for 30 min; confocal microscopy
Procedure: (§3) Cells mounted on glass slides or tumour tissue frozen sections (5-μm-thick) were washed with PBS and fixed in 4% paraformaldehyde (PFA) for 15 min and permeabilized with PBS containing 0.1% Triton X-100 for 15 min. Fixed cells or tumour tissues were blocked with 5 mg ml^−1 BSA in PBS for 30 min at room temperature, followed with incubation with primary antibodies for 3 h and secondary antibodies at room temperature for 1 h and co-stained with 4′6′-diamidino-2-phenylindole (DAPI) to visualize nuclei. The images were taken under an LSM-510 confocal laser scanning microscope system (Carl Zeiss).

RXRα [11] = assay: Subcellular localization of RXRα, immunostaining; assay type: cell-based; conditions: MCF-7 cells; TNFα (10 ng ml^−1) for 30 min; confocal microscopy
Procedure: as §3

tRXRα/R316E [12] = assay: Subcellular localization of tRXRα/R316E, immunostaining; assay type: cell-based; conditions: HEK293T cells; TNFα (10 ng ml^−1) for 30 min; confocal microscopy
Procedure: as §3

[13] = molecular target: the molecule itself; assay: cross-linking; cells (HepG2, HEK293T, MCF-7) transfected for 24 h, treated with 9-cis-RA (10^-7 M) and/or K-80003 (5 x 10^-6 M) for 6 h; lysates or fractions incubated with 1 mM BS3, SDS-PAGE and western blotting
[14] = molecular target: the molecule itself; assay: crystal structure; RXRα-LBD (0.35 mM) cocrystallized with K-80003, 2.6 Å; tetramer (dimer of dimers) with six K-80003 bound
[15] = molecular target: the molecule itself; assay: native gel or EMSA; purified RXRα-LBD or mutant (0.2 μg/μl) incubated with DMSO, 9-cis-RA (0.5 μM) and/or K-80003 (20 μM) for 3 h at 4 °C; 8% non-denaturing PAGE, Coomassie staining

Molecule: CC1=C(/C=C/C(C)=C\C=C\C(C)=C\C(=O)O)C(C)(C)CCC1 [9-cis-RA, 9-cis-retinoic acid]
effect on oligomeric state of RXRα-LBD/R316E (RXRα-LBD/R316E): exhibited mainly as a tetramer independent of the presence of either 9-cis-RA or K-80003
crosslinked RXRα-LBD species (RXRα-LBD): only monomer and homodimer
effect on RXRα-A/B / RXRα-LBD interaction [1]: inhibited by 9-cis-RA in a dose-dependent manner
effect on RXRα-A/B / RXRα-LBD/W305Q interaction [2]: could still bind to the RXRα-A/B protein in a 9-cis-RA sensitive manner similar to the wild-type RXRα-LBD
effect on p85α-BCR interaction with RXRα-LBD [3]: enhancing effect of 9-cis-RA on p85α-BCR interaction
effect on p85α-BCR interaction with tRXRα [4]: enhancing effect of 9-cis-RA on p85α-BCR interaction
binding of RXRα-LBD/W305Q with p85α-BCR [5]: impaired the binding of RXRα-LBD with p85α-BCR either in the presence or absence of 9-cis-RA
oligomeric state of tRXRα/R316E (tRXRα/R316E [6]): strong tetrameric species of tRXRα/R316E but not tRXRα/F313A independent of the presence of 9-cis-RA or K-80003
oligomeric state of tRXRα/F313A (tRXRα/F313A): strong tetrameric species of tRXRα/R316E but not tRXRα/F313A independent of the presence of 9-cis-RA or K-80003
interaction of tRXRα/R316E with p85α [7]: could not bind to p85α either in the absence or presence of TNFα or 9-cis-RA
interaction of tRXRα/F313A with p85α [8]: constitutive and 9-cis-RA-independent interaction with p85α
tRXRα interaction with p85α-ΔiSH2 with cotransfected RXRα-A/B ([9]; HEK293T cells, 9-cis-RA (10^−7 M) for 6 h, coIP anti-Myc): inhibited 9-cis-RA-induced interaction of tRXRα with p85α-ΔiSH2
effect on homotetramers (RXRα [10]): dissociation of homotetramers into homodimers

Molecule: O=C(CCCCCCC(=O)ON1C(=O)CC(S(=O)(=O)O)C1=O)ON1C(=O)CC(S(=O)(=O)O)C1=O (stereo not shown) [BS3, bis[sulfosuccinimidyl] suberate]
9-cis-RA-induced tRXRα interaction with p85α-ΔiSH2 ([9]; HepG2 cells, K-80003 and/or 9-cis-RA, then BS3 crosslinking, western blotting): potently inhibited

stoichiometry N (Myc-RXRα-LBD (human)): 2 and 4
Molecule: Myc-RXRα-LBD (domain or fragment)

Molecule: TNFα
interaction of tRXRα/R316E with p85α [7]: could not bind to p85α either in the absence or presence of TNFα or 9-cis-RA
interaction of tRXRα with full-length p85α (p85α / tRXRα interaction): tRXRα interacted with the full-length p85α in the presence of TNFα
tRXRα found in the cytoplasm of cells (tRXRα): > 65%
effect on nuclear localization of RXRα (RXRα [11]): no effect on the nuclear localization of RXRα
colocalization of tRXRα/R316E with p85α (tRXRα/R316E [12]): lack of colocalization of the tRXRα/R316E mutant with p85α in the absence or presence of TNFα

B1: Myc-tRXRα (domain or fragment, human, UniProt P19793 81-462, looked up)
chain: TTPTLGFSTGSPQLSSPMNPVSSSEDIKPPLGLNGVLKVPAHPSGNMASFTKHICAICGDRSSGKHYGVYSCEGCKGFFKRTVRKDLTYTCRDNKDCLIDKRQRNRCQYCRYQKCLAMGMKREAVQEERQRGKDRNENEVESTSSANEDMPVERILEAELAVEPKTETYVEANMGLNPSSPNDPVTNICQAADKQLFTLVEWAKRIPHFSELPLDDQVILLRAGWNELLIASFSHRSIAVKDGILLATGLHVHRNSAHSAGVGAIFDRVLTELVSKMRDMQMDKTELGCLRAIVLFNPDSKGLSNPAEVEALREKVYASLEAYCKHKYPEQPGRFAKLLLRLPALRSIGLKCLEHLFFFKLIGDTPIDTFLMEMLEAPHQMT
notes: retinoid X receptor alpha lacking the N-terminal 80 amino acids (deletion of 60 plus an additional 20 amino acids); also called truncated RXRα; N-terminally-cleaved RXRα; source: HEK293T, HepG2, transfected, in lysate
stoichiometry N [13]: 4

B2: Myc-tRXRα/R316E (domain or fragment, human, UniProt P19793 81-462, looked up)
chain: TTPTLGFSTGSPQLSSPMNPVSSSEDIKPPLGLNGVLKVPAHPSGNMASFTKHICAICGDRSSGKHYGVYSCEGCKGFFKRTVRKDLTYTCRDNKDCLIDKRQRNRCQYCRYQKCLAMGMKREAVQEERQRGKDRNENEVESTSSANEDMPVERILEAELAVEPKTETYVEANMGLNPSSPNDPVTNICQAADKQLFTLVEWAKRIPHFSELPLDDQVILLRAGWNELLIASFSHESIAVKDGILLATGLHVHRNSAHSAGVGAIFDRVLTELVSKMRDMQMDKTELGCLRAIVLFNPDSKGLSNPAEVEALREKVYASLEAYCKHKYPEQPGRFAKLLLRLPALRSIGLKCLEHLFFFKLIGDTPIDTFLMEMLEAPHQMT
notes: retinoid X receptor alpha lacking the N-terminal 80 amino acids; source: MCF-7, HEK293T, transfected, in lysate
stoichiometry N [13]: 4

B3: RXRα-LBD (His tag cleaved, for crystallization) (domain or fragment, human, UniProt P19793 223-462, looked up)
chain: TSSANEDMPVERILEAELAVEPKTETYVEANMGLNPSSPNDPVTNICQAADKQLFTLVEWAKRIPHFSELPLDDQVILLRAGWNELLIASFSHRSIAVKDGILLATGLHVHRNSAHSAGVGAIFDRVLTELVSKMRDMQMDKTELGCLRAIVLFNPDSKGLSNPAEVEALREKVYASLEAYCKHKYPEQPGRFAKLLLRLPALRSIGLKCLEHLFFFKLIGDTPIDTFLMEMLEAPHQMT
stoichiometry N [14]: 4

B4: His-RXRα-LBD/R316E (domain or fragment, human, UniProt P19793 223-462, looked up)
chain: TSSANEDMPVERILEAELAVEPKTETYVEANMGLNPSSPNDPVTNICQAADKQLFTLVEWAKRIPHFSELPLDDQVILLRAGWNELLIASFSHESIAVKDGILLATGLHVHRNSAHSAGVGAIFDRVLTELVSKMRDMQMDKTELGCLRAIVLFNPDSKGLSNPAEVEALREKVYASLEAYCKHKYPEQPGRFAKLLLRLPALRSIGLKCLEHLFFFKLIGDTPIDTFLMEMLEAPHQMT
notes: source: bacteria expressed, purified
stoichiometry N [15]: 4

B5: His-RXRα-LBD (domain or fragment, human, UniProt P19793 223-462, looked up)
chain: TSSANEDMPVERILEAELAVEPKTETYVEANMGLNPSSPNDPVTNICQAADKQLFTLVEWAKRIPHFSELPLDDQVILLRAGWNELLIASFSHRSIAVKDGILLATGLHVHRNSAHSAGVGAIFDRVLTELVSKMRDMQMDKTELGCLRAIVLFNPDSKGLSNPAEVEALREKVYASLEAYCKHKYPEQPGRFAKLLLRLPALRSIGLKCLEHLFFFKLIGDTPIDTFLMEMLEAPHQMT
stoichiometry N [15]: 2 and 4

— paper PMC5520057, “Modulation of nongenomic activation of PI3K signalling by tetramerization of N-terminally-cleaved RXRα” (Nature Communications, 2017)
